Tests used:
Assay in all cases: cAMP accumulation, single-point mutated GCGR
[1] = molecular target: T1, GCGR mutants (Homo sapiens, UniProt P47871, D385A); type: cell-based; conditions: GCGR D385(7.42b)A, HEK-293T, 40 min, TR-FRET, mean ± S.E.M., n at least 3
T1 construct: expressed in transfected cells; host or cells: HEK-293T
Procedure: (§1) HEK-293T cells were maintained at 37°C in 5% CO2 incubator and seeded onto 6-well cell […]
(§2) culture plates before transfection. After overnight culture, the cells were transiently transfected […]
(§3) with various constructs using Lipofectamine 2000 transfection reagent (Invitrogen). After 24 h, […]
(§4) the transfected cells were seeded onto 384-microtiter plates at a density of 3,000 cells per well […]
(§5) in stimulation buffer (HBSS supplemented with 5 mM HEPES, 0.1% (w/v) casein and 0.5 mM […]
(§6) 3-isobutyl-1-methylxanthine). Different concentrations of retatrutide in stimulation buffer were […]
(§7) added, and the stimulation lasted for 40 min. The reaction was stopped by addition of cAMP […]
(§8) detection buffer containing Eu-cAMP tracer and ULight-anti-cAMP. Plates were then incubated for […]
(§9) 60 min at RT. Time-resolved FRET signals were measured at 620 nm and 665 nm, respectively, by […]
(§10) an EnVision multilabel plate reader (PerkinElmer). Data were analyzed in GraphPad PRISM 9.5 […]
(§11) and all values were normalized to that of the wild-type (WT).
(§12) Supplementary Fig. 5 Effects of receptor mutation on retatrutide-induced cAMP […]
(§13) accumulation. a-c, Signaling profiles of GLP-1R (a), GIPR (b) and GCGR (c) mutants. cAMP […]
(§14) accumulation was measured in wild-type (WT) and single-point mutated GLP-1R, GIPR or […]
(§15) GCGR expressing HEK-293T cells. cAMP levels were normalized to the maximum response […]
(§16) of the WT and dose-response curves were analyzed using a three-parameter logistic equation.
(§17) Data were generated and graphed as means ± S.E.M. of at least three independent experiments performed in quadruplicate.
(§18) (1 picture or pasted object on this page, not shown here)
(§19) Supplementary Ta b l e S 5 Effects of the ligand-binding pocket residue mutation on retatrutide- […]
(§20) induced cAMP signaling at GLP-1R, GIPR or GCGR. […]
(§21) cAMP levels were normalized to the maximum response of the wild-type (WT) and dose-response […]
(§22) curves were analyzed using a three-parameter logistic equation to obtain pEC50 and Emax values. The […]
(§23) experiments were carried out independently at least three times. Data shown are means ± S.E.M. One- […]
(§24) way ANOVA was used to determine statistical difference. N.D., values that could not be determined due […]
(§25) to incomplete curve fits. *P< 0.05, **P< 0.01, ***P< 0.001 and ****P<0.0001.

[2] = molecular target: T2, GCGR mutants (Homo sapiens, UniProt P47871, E362A); type: cell-based; conditions: GCGR E362(6.53b)A, HEK-293T, 40 min, TR-FRET, mean ± S.E.M., n at least 3
T2 construct: expressed in transfected cells; host or cells: HEK-293T
T2 sequence (P47871 26-477 E362A): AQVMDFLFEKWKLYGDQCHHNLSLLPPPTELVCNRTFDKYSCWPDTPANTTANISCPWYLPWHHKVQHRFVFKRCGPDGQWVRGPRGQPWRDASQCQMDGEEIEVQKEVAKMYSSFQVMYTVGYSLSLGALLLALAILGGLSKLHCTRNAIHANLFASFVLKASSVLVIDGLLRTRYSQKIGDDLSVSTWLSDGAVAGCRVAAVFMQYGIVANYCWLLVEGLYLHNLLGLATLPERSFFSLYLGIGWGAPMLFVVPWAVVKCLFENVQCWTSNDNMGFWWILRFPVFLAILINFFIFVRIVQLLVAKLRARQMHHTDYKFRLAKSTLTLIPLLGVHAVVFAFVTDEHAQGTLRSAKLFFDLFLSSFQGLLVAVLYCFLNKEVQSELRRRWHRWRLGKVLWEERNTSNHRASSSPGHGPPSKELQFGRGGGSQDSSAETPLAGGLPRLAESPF
Procedure: as §1, §2, §3, §4, §5, §6, §7, §8, §9, §10, §11, §12, §13, §14, §15, §16, §17, §18, §19, §20, §21, §22, §23, §24, §25

[3] = molecular target: T3, GCGR mutants (Homo sapiens, UniProt P47871, I194K); type: cell-based; conditions: GCGR I194(2.67b)K, HEK-293T, 40 min, TR-FRET, mean ± S.E.M., n at least 3
T3 construct: expressed in transfected cells; host or cells: HEK-293T
T3 sequence (P47871 26-477 I194K): as the sequence (P47871 26-477 E362A) above, with I169K, A337E counted along it
Procedure: as §1, §2, §3, §4, §5, §6, §7, §8, §9, §10, §11, §12, §13, §14, §15, §16, §17, §18, §19, §20, §21, §22, §23, §24, §25

[4] = molecular target: T4, GCGR mutants (Homo sapiens, UniProt P47871, K205A); type: cell-based; conditions: GCGR K205(ECL1)A; HEK-293T, 40 min, TR-FRET; mean ± S.E.M., n at least 3
T4 construct: expressed in transfected cells; host or cells: HEK-293T
T4 sequence (P47871 26-477 K205A): as the sequence (P47871 26-477 E362A) above, with K180A, A337E counted along it
Procedure: as §1, §2, §3, §4, §5, §6, §7, §8, §9, §10, §11, §12, §13, §14, §15, §16, §17, §18, §19, §20, §21, §22, §23, §24, §25

[5] = molecular target: T5, GCGR mutants (Homo sapiens, UniProt P47871, Q131A); type: cell-based; conditions: GCGR Q131(1.29b)A; HEK-293T, 40 min, TR-FRET; mean ± S.E.M., n at least 3
T5 construct: expressed in transfected cells; host or cells: HEK-293T
T5 sequence (P47871 26-477 Q131A): as the sequence (P47871 26-477 E362A) above, with Q106A, A337E counted along it
Procedure: as §1, §2, §3, §4, §5, §6, §7, §8, §9, §10, §11, §12, §13, §14, §15, §16, §17, §18, §19, §20, §21, §22, §23, §24, §25

[6] = molecular target: T6, GCGR mutants (Homo sapiens, UniProt P47871, Q293A); type: cell-based; conditions: GCGR Q293(ECL2)A, HEK-293T, 40 min, TR-FRET, mean ± S.E.M., n at least 3
T6 construct: expressed in transfected cells; host or cells: HEK-293T
T6 sequence (P47871 26-477 Q293A): as the sequence (P47871 26-477 E362A) above, with Q268A, A337E counted along it
Procedure: as §1, §2, §3, §4, §5, §6, §7, §8, §9, §10, §11, §12, §13, §14, §15, §16, §17, §18, §19, §20, §21, §22, §23, §24, §25

[7] = molecular target: T7, GCGR mutants (Homo sapiens, UniProt P47871, S297A); type: cell-based; conditions: GCGR S297(ECL2)A; HEK-293T, 40 min, TR-FRET; mean ± S.E.M., n at least 3
T7 construct: expressed in transfected cells; host or cells: HEK-293T
T7 sequence (P47871 26-477 S297A): as the sequence (P47871 26-477 E362A) above, with S272A, A337E counted along it
Procedure: as §1, §2, §3, §4, §5, §6, §7, §8, §9, §10, §11, §12, §13, §14, §15, §16, §17, §18, §19, §20, §21, §22, §23, §24, §25

[8] = molecular target: T8, GCGR mutants (Homo sapiens, UniProt P47871, W215A); type: cell-based; conditions: GCGR W215(ECL1)A, HEK-293T, 40 min, TR-FRET, mean ± S.E.M., n at least 3
T8 construct: expressed in transfected cells; host or cells: HEK-293T
T8 sequence (P47871 26-477 W215A): as the sequence (P47871 26-477 E362A) above, with W190A, A337E counted along it
Procedure: as §1, §2, §3, §4, §5, §6, §7, §8, §9, §10, §11, §12, §13, §14, §15, §16, §17, §18, §19, §20, §21, §22, §23, §24, §25

[9] = molecular target: T9, GCGR mutants (Homo sapiens, UniProt P47871, W87A); type: cell-based; conditions: GCGR W87(ECD)A, HEK-293T, 40 min, TR-FRET, mean ± S.E.M., n at least 3
T9 construct: expressed in transfected cells; host or cells: HEK-293T
T9 sequence (P47871 26-477 W87A): as the sequence (P47871 26-477 E362A) above, with W62A, A337E counted along it
Procedure: as §1, §2, §3, §4, §5, §6, §7, §8, §9, §10, §11, §12, §13, §14, §15, §16, §17, §18, §19, §20, §21, §22, §23, §24, §25

[10] = molecular target: T10, GCGR mutants (Homo sapiens, UniProt P47871, Y138A); type: cell-based; conditions: GCGR Y138(1.36b)A, HEK-293T, 40 min, TR-FRET, mean ± S.E.M., n at least 3
T10 construct: expressed in transfected cells; host or cells: HEK-293T
T10 sequence (P47871 26-477 Y138A): as the sequence (P47871 26-477 E362A) above, with Y113A, A337E counted along it
Procedure: as §1, §2, §3, §4, §5, §6, §7, §8, §9, §10, §11, §12, §13, §14, §15, §16, §17, §18, §19, §20, §21, §22, §23, §24, §25

[11] = molecular target: T11, GCGR mutants (Homo sapiens, UniProt P47871, Y138L); type: cell-based; conditions: GCGR Y138(1.36b)L, HEK-293T, 40 min, TR-FRET, mean ± S.E.M., n at least 3
T11 construct: expressed in transfected cells; host or cells: HEK-293T
T11 sequence (P47871 26-477 Y138L): as the sequence (P47871 26-477 E362A) above, with Y113L, A337E counted along it
Procedure: as §1, §2, §3, §4, §5, §6, §7, §8, §9, §10, §11, §12, §13, §14, §15, §16, §17, §18, §19, §20, §21, §22, §23, §24, §25

[12] = molecular target: T12, GCGR mutants (Homo sapiens, UniProt P47871, Y202A); type: cell-based; conditions: GCGR Y202(2.75b)A, HEK-293T, 40 min, TR-FRET, mean ± S.E.M., n at least 3
T12 construct: expressed in transfected cells; host or cells: HEK-293T
T12 sequence (P47871 26-477 Y202A): as the sequence (P47871 26-477 E362A) above, with Y177A, A337E counted along it
Procedure: as §1, §2, §3, §4, §5, §6, §7, §8, §9, §10, §11, §12, §13, §14, §15, §16, §17, §18, §19, §20, §21, §22, §23, §24, §25

[13] = test system: GCGR mutants; type: cell-based, human; conditions: relative to WT
Procedure: as §1, §2, §3, §4, §5, §6, §7, §8, §9, §10, §11, §12, §13, §14, §15, §16, §17, §18, §19, §20, §21, §22, §23, §24, §25

T1 sequence (P47871 26-477 D385A): as the sequence (P47871 26-477 E362A) above, with A337E, D360A counted along it

CC[C@H](C)[C@H](NC(=O)[C@H](Cc1ccccc1)NC(=O)[C@H](C)NC(=O)C(C)(C)NC(=O)[C@H](CCC(N)=O)NC(=O)[C@H](C)NC(=O)[C@H](CCCCNC(=O)COCCOCCNC(=O)CC[C@H](NC(=O)CCCCCCCCCCCCCCCCCCC(=O)O)C(=O)O)NC(=O)[C@H](CCCCN)NC(=O)[C@H](CC(=O)O)NC(=O)[C@H](CC(C)C)NC(=O)[C@](C)(CC(C)C)NC(=O)[C@@H](NC(=O)[C@H](CO)NC(=O)[C@H](Cc1ccc(O)cc1)NC(=O)[C@H](CC(=O)O)NC(=O)[C@H](CO)NC(=O)[C@@H](NC(=O)[C@H](Cc1ccccc1)NC(=O)[C@@H](NC(=O)CNC(=O)[C@H](CCC(N)=O)NC(=O)C(C)(C)NC(=O)[C@@H](N)Cc1ccc(O)cc1)[C@@H](C)O)[C@@H](C)O)[C@@H](C)CC)C(=O)N[C@@H](CCC(=O)O)C(=O)N[C@@H](Cc1ccc(O)cc1)C(=O)N[C@@H](CC(C)C)C(=O)N[C@@H](CC(C)C)C(=O)N[C@@H](CCC(=O)O)C(=O)NCC(=O)NCC(=O)N1CCC[C@H]1C(=O)N[C@@H](CO)C(=O)N[C@@H](CO)C(=O)NCC(=O)N[C@@H](C)C(=O)N1CCC[C@H]1C(=O)N1CCC[C@H]1C(=O)N1CCC[C@H]1C(=O)N[C@@H](CO)C(N)=O [retatrutide]
Emax ± S.E.M. (% WT) [1]: 100.58 ± 1.33 % WT | EC50 ([1]; ****P < 0.0001): 0.0479 nM | Emax ± S.E.M. (% WT) [2]: 100.39 ± 2.54 % WT | EC50 ([2]; ****P < 0.0001): 0.0661 nM | Emax ± S.E.M. (% WT) [3]: 101.55 ± 2.54 % WT | EC50 ([3]; ****P < 0.0001): 0.263 nM | EC50 [4]: 0.00933 nM | Emax ± S.E.M. (% WT) [4]: 100.00 ± 2.06 % WT | EC50 [5]: 0.00676 nM | Emax ± S.E.M. (% WT) [5]: 100.15 ± 1.51 % WT | Emax ± S.E.M. (% WT) [6]: 99.73 ± 0.94 % WT | EC50 ([6]; **P < 0.01): 0.00324 nM | EC50 [7]: 0.0049 nM | Emax ± S.E.M. (% WT) [7]: 100.48 ± 1.34 % WT | Emax ± S.E.M. (% WT) [8]: 101.34 ± 2.03 % WT | EC50 ([8]; ****P < 0.0001): 0.0661 nM | Emax ± S.E.M. (% WT) [9]: 101.97 ± 3.51 % WT | EC50 ([9]; ****P < 0.0001): 0.631 nM | Emax ± S.E.M. (% WT) [10]: 101.28 ± 2.08 % WT | EC50 ([10]; ****P < 0.0001): 0.195 nM | Emax ± S.E.M. (% WT) [11]: 100.64 ± 1.39 % WT | EC50 ([11]; *P < 0.05): 0.00398 nM | Emax ± S.E.M. (% WT) [12]: 100.47 ± 2.15 % WT | EC50 ([12]; ****P < 0.0001): 0.123 nM | change of retatrutide potency by mutation ([13]; GCGR S297(ECL2)A): slightly increased | decrease of cAMP signaling potency by mutation ([13]; GCGR Y138(1.36b)A): 26.9 fold | change of cAMP signaling potency by mutation ([13]; GCGR Y138(1.36b)L): moderately increased

From publication PMC11255275, “Structural insights into the triple agonism at GLP-1R, GIPR and GCGR manifested by retatrutide” (Cell Discovery, 2024)
